Article PMC11645267, “Novel pharmacologic inhibition of lysine-specific demethylase 1 as a potential therapeutic for glioblastoma” (Cancer Gene Therapy, 2024)

Tested on: GSC1228 cells
Assay: ChIP-seq analysis of histone modifications
Assay type: cell-based, human
Conditions: GSC1228, 5 μM, versus DMSO
Procedure: Cells (1 × 10^6) were treated with 1% formaldehyde for 8 min to crosslink histones to DNA. After washing with cold PBS, cell pellets were lysed with lysis buffer (10 mM Tris-HCl, 0.25% Triton X-100, 10 mM EDTA, and 0.1 M NaCl). Cell nuclei were collected after centrifugation and re-suspended in SDS lysis buffer (1% SDS, 150 mM NaCl, 50 mM HEPES-KOH, 2 mM EDTA, 1% Triton X-100, and 0.1% sodium deoxycholate). Chromatin was sonicated using Covaris S220 (Covaris, Moburn, MA, USA). Lysates were incubated overnight with 50 μL of Dynabeads Protein G (Thermo Fisher Scientific) which were pre-coated with 4 μL of anti-H3K4me1 antibody (ab8895, Abcam, Cambridge, UK), 3 μL of anti-H3K4me2 antibody (#39141, Active Motif), 2.5 μL of anti-H3K4me3 antibody (#39159, Active Motif), 4 μL of anti-H3K9me2 antibody (ab1220, Abcam). The beads were washed and protein-DNA complexes were eluted with elution buffer (1% SDS, 10 mM EDTA, and 50 mM Tris-HCl) and then treated with RNase for 2 h at 37°C followed by proteinase K treatment overnight. DNA was extracted by the phenol/chloroform method, ethanol-precipitated and re-suspended in 0.1 × TE buffer. 10% of the lysate was treated with RNase and proteinase K and de-crosslinked as input samples.
ChIP DNA (n = 2 for each antibody in each condition) was used to make sequence libraries using NEBNext Ultra II DNA library Prep kit for the Illumina (New England Biolabs, Ipswich, MA, USA). Library quality was checked using the Agilent Bioanalyzer 2100 (Agilent Technologies, Santa Clara, CA, USA) and then libraries were run on an Illumina Hiseq XTen (Illumina, San Diego, CA, USA).
ChIP-seq clean reads were obtained from raw reads by the removal of adaptors and low-quality reads. The clean reads were aligned to the human genome (hg38) using Bowtie2 (version 2.4.2). The levels of histone modification at gene promoters were estimated by counting the numbers of reads mapped within a 2-kb region around the transcriptional start site using MACS2 [30] and HOMER [31]. Differential analysis of peaks and generation of heatmap were performed using BEDtools v2.30.0 [32]. HOMER was used to annotate ChIP-seq peaks for genomic location and link these peaks to nearby genes. TF binding motif analysis was performed using HOMER. BEDtools was used to obtain overlap peaks with super-enhancers and H3K4me2 peaks. Furthermore, we used our deposited GSC316 H3K27ac ChIP-seq data (GSE178471) and identified super-enhancers by the Rank Ordering of Super Enhancer (ROSE) algorithm. From this analysis, we identified 672 super-enhancers.
To precisely evaluate the effects of S2172 on histone modifications at a genome-wide scale, we performed ChIP-seq analysis in GSC1228 cells treated with either DMSO or S2172. […]

In the case of `NC1CCC(NC2CC2c2cc(F)cc(F)c2OCc2ccccc2)CC1` (stereo not shown) [S2172], the “de novo H3K4me3 regions after treatment” value is reported as 2582 regions, the “new H3K4me2 regions (de novo regions) after treatment” value is reported as 20,085 regions and the “regions already modified by H3K4me2 with increased H3K4me2 after treatment” value is reported as 25,326 regions. The “regions from which H3K4me2 was lost after treatment” value was 5788 regions.
